pIC50, pKd: −log10 of the molar value. Activity calls are given as the source filed them. The rule behind the calls is not given here. Peptide text beside a SMILES is read from it.
Columns and labels:
[1] = Drug distribution in tumor of BALB/C nude mouse model xenografted with human Huh-7 cells administered intravenously measured after 2 hrs by fluorescence spectrophotometry; assay type: ADME, tissue-based, Neoplasm; settings: in vivo, iv, dose 1-2 µM/Kg
[2] = system: HepG2; assay: Induction of apoptosis in human HepG2 cells assessed as late apoptotic cells under dark condition at 5 uM incubated for 24 hrs by Annexin V-FITC/PI staining based flow cytometry relative to control; assay type: functional
[3] = system: HepG2; assay: Induction of apoptosis in human HepG2 cells assessed as necrotic cells at 5 uM incubated for 24 hrs followed by 10 J/cm2 of light irradiation at 660 nm measured after 24 hrs by Annexin V-FITC/PI staining based flow cytometry relative to control; assay type: functional; settings: time 48 hrs
[4] = system: HepG2; assay: Antiproliferative activity against human HepG2 cells under 10 J/cm2 light irradiation at 660 nm by CCK8 assay; assay type: functional, cell-based; settings: HepG2, light or radiation study
[5] = system: Huh-7; assay: Antiproliferative activity against human Huh-7 cells under 10 J/cm2 light irradiation at 660 nm by CCK8 assay; assay type: functional, cell-based; settings: Huh-7, light or radiation study
[6] = Drug distribution in spleen of BALB/C nude mouse model xenografted with human HepG2 cells at 1 to 2 uM/kg, iv measured for 1 to 4 hrs by fluorescence imaging analysis; assay type: ADME, organism-based; settings: in vivo, dose lower 1 µM/Kg, time lower 1 hrs, dose upper 2 µM/Kg, time upper 4 hrs
[7] = system: HepG2; assay: Induction of apoptosis in human HepG2 cells assessed as late apoptotic cells under dark condition at 2.5 uM incubated for 24 hrs by Annexin V-FITC/PI staining based flow cytometry relative to control; assay type: functional
[8] = Drug distribution in tumor of BALB/C nude mouse model xenografted with human HepG2 cells at 1 to 2 uM/kg, iv measured for 1 to 6 hrs by fluorescence imaging analysis; assay type: ADME, organism-based, Neoplasm; settings: in vivo, dose lower 1 µM/Kg, time lower 1 hrs, dose upper 2 µM/Kg, time upper 6 hrs
[9] = system: HepG2; assay: Induction of apoptosis in human HepG2 cells assessed as early apoptotic cells under dark condition at 5 uM incubated for 24 hrs by Annexin V-FITC/PI staining based flow cytometry relative to control; assay type: functional
[10] = Toxicity in BALB/C nude mouse model xenografted with human HepG2 cells assessed as damage in kidney at 1 to 2 uM/kg, iv administered every two days for 21 days along with 250 mW/cm2 light irradiation at 660 nm for 10 mins at 1 hr post-compound administration by H and E staining based analysis; assay type: organism-based; settings: in vivo, 505.17 h, dose 1-2 µM/Kg, time 505.166 hrs
[11] = system: Huh-7; assay: Antiproliferative activity against human Huh-7 cells under dark condition by CCK8 assay; assay type: functional, cell-based
[12] = system: HepG2; assay: Induction of ROS generation in human HepG2 cells at 10 uM preincubated for 24 hrs followed by DCFH-DA probe addition and further incubated under dark condition for 20 mins prior and 20 mins post- light irradiation of 10 J/cm2 at 660 nm by flow cytometry; assay type: functional, cell-based; settings: time 24.66 hrs
[13] = Toxicity in BALB/C nude mouse model xenografted with human HepG2 cells assessed as damage in liver at 1 to 2 uM/kg, iv administered every two days for 21 days along with 250 mW/cm2 light irradiation at 660 nm for 10 mins at 1 hr post-compound administration by H and E staining based analysis; assay type: organism-based; settings: in vivo, 505.17 h, dose 1-2 µM/Kg, time 505.166 hrs
[14] = Drug uptake in human HepG2 cells at 10 uM by confocal microscopy; assay type: ADME, cell-based; settings: hepg2, 10 µM, TDE = time-dependent effect, time 4-24 hrs
[15] = target: Glypican-3 (Homo sapiens, UniProt P51654); assay: Binding affinity to GPC3 (unknown origin) assessed as dissociation constant by fluorescence polarization assay
[16] = system: HeLa; assay: Antiproliferative activity against human HeLa cells under dark condition by CCK8 assay; assay type: functional, cell-based
[17] = system: HepG2; assay: Induction of apoptosis in human HepG2 cells assessed as early apoptotic cells under dark condition at 2.5 uM incubated for 24 hrs by Annexin V-FITC/PI staining based flow cytometry relative to control; assay type: functional
[18] = system: MCF7; assay: Antiproliferative activity against human MCF7 cells under dark condition by CCK8 assay; assay type: functional, cell-based
[19] = Toxicity in BALB/C nude mouse model xenografted with human HepG2 cells assessed as change in spleen weight at 1 to 2 uM/kg, iv administered every two days for 21 days along with 250 mW/cm2 light irradiation at 660 nm for 10 mins at 1 hr post-compound administration; assay type: organism-based; settings: in vivo, 505.17 h, dose 1-2 µM/Kg, time 505.166 hrs
[20] = Toxicity in BALB/C nude mouse model xenografted with human HepG2 cells assessed as body weight loss at 1 to 2 uM/kg, iv administered every two days for 21 days along with 250 mW/cm2 light irradiation at 660 nm for 10 mins at 1 hr post-compound administration; assay type: organism-based; settings: in vivo, 505.17 h, dose 1-2 µM/Kg, time 505.166 hrs
[21] = Toxicity in BALB/C nude mouse model xenografted with human HepG2 cells assessed as damage in lung at 1 to 2 uM/kg, iv administered every two days for 21 days along with 250 mW/cm2 light irradiation at 660 nm for 10 mins at 1 hr post-compound administration by H and E staining based analysis; assay type: organism-based; settings: in vivo, 505.17 h, dose 1-2 µM/Kg, time 505.166 hrs
[22] = Partition coefficient, logP of compound; assay type: physicochemical; settings: octanol/water
[23] = system: HepG2; assay: Induction of cell cycle arrest at S phase in human HepG2 cells at 1 uM under 10 J/cm2 light irradiation at 660 nm by flow cytometry relative to control; assay type: functional
[24] = Photostability of compound under 250 mW/cm2 light irradiation at 660 nm incubated for 10 mins by UV spectrophotometry; assay type: physicochemical; settings: 0.66 µM
[25] = […] assessed as decrease in fluorescence intensity of DMA; assay type: functional
[26] = system: HeLa; assay: Antiproliferative activity against human HeLa cells under 10 J/cm2 light irradiation at 660 nm by CCK8 assay; assay type: functional, cell-based; settings: light or radiation study
[27] = system: HepG2; assay: Induction of apoptosis in human HepG2 cells assessed as late apoptotic cells at 2.5 uM incubated for 24 hrs followed by 10 J/cm2 of light irradiation at 660 nm measured after 24 hrs by Annexin V-FITC/PI staining based flow cytometry relative to control; assay type: functional; settings: time 48 hrs
[28] = Drug uptake in lysosome of human Huh-7 cells at 2 uM incubated for 24 hrs by lyso tracker green DND-26 probe based laser confocal microscopy; assay type: ADME, subcellular; settings: huh-7, 24 h
[29] = Drug distribution in tumor of BALB/C nude mouse model xenografted with human Huh-7 cells at 1 to 2 uM/kg, iv measured for 1 to 6 hrs by fluorescence imaging analysis; assay type: ADME, organism-based, Neoplasm; settings: in vivo, dose lower 1 µM/Kg, time lower 1 hrs, dose upper 2 µM/Kg, time upper 6 hrs
[30] = Drug distribution in liver of BALB/C nude mouse model xenografted with human HepG2 cells at 1 to 2 uM/kg, iv measured for 1 to 4 hrs by fluorescence imaging analysis; assay type: ADME, organism-based; settings: in vivo, dose lower 1 µM/Kg, time lower 1 hrs, dose upper 2 µM/Kg, time upper 4 hrs
[31] = Drug uptake in lysosome of human HepG2 cells assessed as pearsons co-efficient of lyso tracker green DND-26-yellow signal at 2 uM incubated for 24 hrs by laser confocal microscopy; assay type: ADME, subcellular; settings: hepg2, 24 h
[32] = Drug distribution in tumor of BALB/C nude mouse model xenografted with human HepG2 cells administered intravenously measured after 2 hrs by fluorescence spectrophotometry; assay type: ADME, tissue-based, Neoplasm; settings: in vivo, iv, dose 1-2 µM/Kg
[33] = Toxicity in BALB/C nude mouse model xenografted with human HepG2 cells assessed as change in lung weight at 1 to 2 uM/kg, iv administered every two days for 21 days along with 250 mW/cm2 light irradiation at 660 nm for 10 mins at 1 hr post-compound administration; assay type: organism-based; settings: in vivo, 505.17 h, dose 1-2 µM/Kg, time 505.166 hrs

Glypican-3, sequence (P51654 25-358 limits assumed): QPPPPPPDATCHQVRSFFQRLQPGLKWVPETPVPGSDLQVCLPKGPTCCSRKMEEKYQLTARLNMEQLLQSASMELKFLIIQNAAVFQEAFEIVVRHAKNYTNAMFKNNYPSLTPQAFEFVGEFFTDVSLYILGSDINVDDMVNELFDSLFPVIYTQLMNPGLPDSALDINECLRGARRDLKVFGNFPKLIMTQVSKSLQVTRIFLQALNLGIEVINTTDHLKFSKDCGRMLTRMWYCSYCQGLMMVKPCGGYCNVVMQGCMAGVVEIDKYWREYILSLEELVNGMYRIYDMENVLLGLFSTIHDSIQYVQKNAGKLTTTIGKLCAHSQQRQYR
Glypican-3, sequence (P51654 359-554 limits assumed): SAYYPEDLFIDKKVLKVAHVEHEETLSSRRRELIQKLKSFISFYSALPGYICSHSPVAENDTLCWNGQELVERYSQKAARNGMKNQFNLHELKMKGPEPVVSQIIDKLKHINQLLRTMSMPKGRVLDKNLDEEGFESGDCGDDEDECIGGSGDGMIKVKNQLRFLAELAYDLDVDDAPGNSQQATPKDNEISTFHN

Structure (SMILES): C=Cc1c(C)c2cc3nc(c(CC(=O)O)c4[nH]c(cc5nc(cc1[nH]2)C(C)=C5CC)c(C)c4C(=O)NCCCC(=O)N[C@@H](CC(=O)O)C(=O)N[C@@H](Cc1cnc[nH]1)C(=O)N[C@@H](CC(C)C)C(=O)N[C@@H](C)C(=O)N[C@@H](CO)C(=O)N[C@@H](CC(C)C)C(=O)N[C@@H](Cc1c[nH]c2ccccc12)C(=O)N[C@@H](Cc1c[nH]c2ccccc12)C(=O)NCC(=O)N[C@H](C(=O)N[C@@H](CCC(=O)O)C(=O)N[C@@H](CC(C)C)C(=O)O)[C@@H](C)O)[C@@H](CCC(=O)O)[C@@H]3C (HELM PEPTIDE1{[C=Cc1c(C)c2cc3nc(c(CC(=O)O)c4[nH]c(cc5nc(cc1[nH]2)C(C)=C5CC)c(C)c4C(=O)[*:2])[C@@H](CCC(=O)O)[C@@H]3C].[O=C(CCCN[*:1])[*:2]].D.H.L.A.S.L.W.W.G.T.E.L}$$$$V2.0)
- Drug uptake [1]: Active
- Activity [2]: 1.7%
- Activity [3]: 15.3%
- pIC50 [4]: 6.09
- pIC50 [5]: 5.62
- Drug uptake [6]: Not Active
- Activity [7]: 2%
- Drug uptake [8]: Active
- Activity [9]: 2.3%
- Activity [10]: Non-Toxic
- pIC50 [11]: < 4.00
- Activity [12]: Active
- Activity [13]: Non-Toxic
- Drug uptake [14]: Tde
- pKd [15]: 6.42
- pIC50 [16]: < 4.00
- Activity [17]: 2.7%
- pIC50 [18]: < 4.00
- Activity [19]: Non-Toxic
- Activity [20]: Non-Toxic
- Activity [21]: Non-Toxic
- logP [22]: 1.8
- Activity [23]: 27.7%
- Stability [24]: Stable
- Activity [25]: Active
- pIC50 [26]: < 5.00
- Activity [27]: 17.8%
- Drug uptake [28]: Active
- Drug uptake [29]: Active
- Drug uptake [30]: Not Active
- Activity [31]: 0.79
- Drug uptake [32]: Dose-Dependent Effect
- Activity [33]: Non-Toxic

— ChEMBL document CHEMBL5537154, “Smart glypican-3-targeting peptide-chlorin e6 conjugates for targeted photodynamic therapy of hepatocellular carcinoma” (Eur J Med Chem, 2024)
